Experimental data from the NIST ThermoML archive (doi:10.1016/j.jct.2010.11.005).
“And” between values parts separate entries of the source, which are not always exact repeats. Identical values can stand only once. Numbers after ± are expanded uncertainties.

Key:
[1] = Crystal, Calculated from knudsen effusion weight loss
[2] = molar enthalpy of vaporization or sublimation; conditions: 298.15 K; Crystal; Calvet microcalorimetry

molar enthalpy [2] | Compound | vapor or sublimation pressure ([1]; 349.27 K) | vapor or sublimation pressure ([1]; 351.21 K) | vapor or sublimation pressure ([1]; 353.12 K) | vapor or sublimation pressure ([1]; 355.13 K) | vapor or sublimation pressure ([1]; 357.21 K) | vapor or sublimation pressure ([1]; 359.26 K) | vapor or sublimation pressure ([1]; 361.26 K) | vapor or sublimation pressure ([1]; 363.2 K) | vapor or sublimation pressure ([1]; 365.12 K) | vapor or sublimation pressure ([1]; 359.27 K) | vapor or sublimation pressure ([1]; 361.19 K) | vapor or sublimation pressure ([1]; 363.12 K) | vapor or sublimation pressure ([1]; 365.29 K) | vapor or sublimation pressure ([1]; 367.2 K) | vapor or sublimation pressure ([1]; 369.12 K) | vapor or sublimation pressure ([1]; 371.29 K) | vapor or sublimation pressure ([1]; 373.18 K) | vapor or sublimation pressure ([1]; 375.1 K)
29.5 ± 1.15 kcal/mol | O=C(c1ccccc1)c1cccc([N+](=O)[O-])c1 [3-nitrobenzophenone] | 0.00016 ± 8e-06 kPa and 0.000161 ± 8e-06 kPa and 0.000162 ± 8e-06 kPa | 0.000194 ± 1e-05 kPa and 0.000198 ± 1e-05 kPa | 0.000248 ± 1.2e-05 kPa and 0.000245 ± 1.2e-05 kPa and 0.000244 ± 1.2e-05 kPa | 0.000315 ± 1.6e-05 kPa and 0.000308 ± 1.5e-05 kPa | 0.000399 ± 2e-05 kPa and 0.000396 ± 2e-05 kPa and 0.000395 ± 2e-05 kPa | 0.000506 ± 2.5e-05 kPa and 0.000508 ± 2.5e-05 kPa | 0.000613 ± 3.1e-05 kPa and 0.00061 ± 3.1e-05 kPa and 0.000614 ± 3.1e-05 kPa | 0.000758 ± 3.8e-05 kPa and 0.000749 ± 3.8e-05 kPa and 0.000771 ± 3.9e-05 kPa | 0.000936 ± 4.7e-05 kPa and 0.000935 ± 4.7e-05 kPa and 0.000946 ± 4.7e-05 kPa |  |  |  |  |  |  |  |  | 
29.2 ± 1.29 kcal/mol | O=C(c1ccccc1)c1ccc([N+](=O)[O-])cc1 [4-nitrobenzophenone] |  |  |  |  |  |  |  |  |  | 0.00018 ± 9e-06 kPa and 0.000177 ± 9e-06 kPa and 0.000174 ± 9e-06 kPa | 0.000215 ± 1.1e-05 kPa and 0.00021 ± 1.1e-05 kPa and 0.000214 ± 1.1e-05 kPa | 0.000269 ± 1.3e-05 kPa and 0.000265 ± 1.3e-05 kPa and 0.000259 ± 1.3e-05 kPa | 0.000344 ± 1.7e-05 kPa and 0.000342 ± 1.7e-05 kPa | 0.000422 ± 2.1e-05 kPa and 0.00042 ± 2.1e-05 kPa and 0.000427 ± 2.1e-05 kPa | 0.000512 ± 2.6e-05 kPa and 0.000509 ± 2.5e-05 kPa and 0.000523 ± 2.6e-05 kPa | 0.000652 ± 3.3e-05 kPa and 0.000645 ± 3.2e-05 kPa and 0.000657 ± 3.3e-05 kPa | 0.000767 ± 3.8e-05 kPa and 0.000769 ± 3.8e-05 kPa and 0.000791 ± 4e-05 kPa | 0.000955 ± 4.8e-05 kPa and 0.000941 ± 4.7e-05 kPa and 0.00096 ± 4.8e-05 kPa
35.2 ± 1.86 kcal/mol | O=C(c1cccc([N+](=O)[O-])c1)c1cccc([N+](=O)[O-])c1 [3,3'-dinitrobenzophenone] |  |  |  |  |  |  |  |  |  |  |  |  |  |  |  |  |  | 
